Measurements reported in patent US10814010B2, “FOXC2 inhibitor and methods of use thereof” (The Board of Regents of The University of Texas System, priority 2018, dated 2020).

How the values were obtained:
Assay type in all cases: cell-based
[1] = biological target: T1, FOXC2 (Homo sapiens, UniProt Q99958); experiment: Western blot of FOXC2 protein level and nuclear localization in MDA-MB-231; conditions: MDA-MB-231, 20 μM
T1 construct: endogenous in cells; host or cells: MDA-MB-231
T1 sequence (Q99958 1-501): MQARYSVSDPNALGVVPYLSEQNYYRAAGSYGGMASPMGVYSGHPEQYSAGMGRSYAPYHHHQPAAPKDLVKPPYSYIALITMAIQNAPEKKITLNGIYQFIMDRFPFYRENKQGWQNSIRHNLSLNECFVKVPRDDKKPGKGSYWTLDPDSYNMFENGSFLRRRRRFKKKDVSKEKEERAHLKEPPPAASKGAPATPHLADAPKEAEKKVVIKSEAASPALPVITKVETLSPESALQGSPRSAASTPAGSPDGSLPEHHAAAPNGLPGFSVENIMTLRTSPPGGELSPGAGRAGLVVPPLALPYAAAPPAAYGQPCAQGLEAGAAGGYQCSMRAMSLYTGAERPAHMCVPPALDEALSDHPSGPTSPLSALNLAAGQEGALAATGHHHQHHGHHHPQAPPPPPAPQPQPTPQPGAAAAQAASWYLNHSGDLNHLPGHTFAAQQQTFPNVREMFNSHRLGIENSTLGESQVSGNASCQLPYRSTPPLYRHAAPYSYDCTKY
Description: As a transcription factor, FOXC2 needs to localize into the nucleus to promote the transcription of target genes. Therefore, a small molecule that blocks nuclear localization of FOXC2 is expected to inhibit EMT. […] Putative kinases that phosphorylate FOXC2 have been proposed (Werden et al., 2016; Ivanov et al., 2013; Golden & Cantley, 2014). It is possible that MC-1-F2 disrupts the protein-protein interaction between FOXC2 and its kinase, resulting in the decease of FOXC2 nuclear localization. Investigation into the exact mechanism by which MC-1-F2 inhibits FOXC2 phosphorylation and nuclear localization is underway.
(§1) 50 μg of total protein per sample was incubated with 4× loading buffer at 100° C. for 5 min. Protein samples were then loaded into a polyacrylamide gel and subjected to SDS-PAGE. Resolved proteins were then transferred by a wet transfer method to a PVDF membrane at 100 V for 1 hour using a BioRad Mini Trans-Blot Electrophoresis Transfer Cell. Upon the completion of wet transfer, the membrane was then blocked with 5% (w/v) fat-free milk in 1× Tris-buffered saline/0.1% (v/v) Tween-20 (TBS-T) for at least 1 hour. Then incubated with the respective primary antibodies diluted in 5% BSA in 1×TBST at 4° C. overnight. The following day exposed to 1:1000 dilution of anti-mouse or anti-rabbit HRP-conjugated secondary antibodies in 5% (w/v) fat-free milk in 1×TBS-T for 1 hour at room temperature. The probed proteins were then detected for chemiluminescent signal using SuperSignal Chemiluminescent Substrate (PIERCE). Pierce antibodies: B-actin, and all other antibodies used are from cell signaling. MG132 treatment was added to cells (0.5 μM) for 1-hour incubation prior to compound treatment, no more than 24 hours total exceeded during MG132 incubation.

[2] = tested on: PC3 cells; experiment: Western blot of EMT, CSC markers and AR in PC3; conditions: PC3, 20 μM, 48 hours
Description: Due to our interest in CRPC the cell lines DU145 and PC3 were chosen due to their chemoresistance to high concentrations of enzalutamide, androgen independence, and relatively high expression of FOXC2 (FIGS. 30A&B). First, the effect of MC-1-F2 on the inhibition of EMT markers was examined (FIGS. 26A-G). […] The variability in E-cadherin expression can be due to a different mode of action the ligand MC-1-F2 is having on prostate cancer cells, possibly a time dependent effect of the ligand.
After confirmation of the ligand's ability to block EMT, the ligand's ability to decrease cancer stem cell (CSC) characteristics was determined. CRPC is plagued by a higher ratio of CSC to normal prostate cells, leading to the acquired characteristics of higher proliferative and self-renewal capabilities (Yun et al., 2016). CSC markers, Nanog, C-myc and KLF4, were examined.
as §1, with “[…]” for “or anti-rabbit”, “signaling.” for “signaling. MG132 treatment was added to cells (0.5 μM) for 1-hour incubation prior to compound treatment, no more than 24 hours total exceeded during MG132 incubation.”

[3] = tested on: PC3 cells; experiment: Transwell invasion assay, PC3; conditions: PC3, 24 hours, vs DMSO
Procedure: Following determination of both inhibition of EMT and CSC properties, the inhibition of the migratory and invasive capabilities of both cell lines following MC-1-F2 treatment was examined through the use of a transwell invasion assay.
Matrigel invasion chambers (Corning) were allowed to come to room temperature and allowed to rehydrate for 2 hours in a cell incubator. Cells were treated 24 hours prior to assay and starved in 2% FBS in DMEM for 2 hours prior to assay. A cell suspension containing 5×10^4 cells/mL was prepared. Chemoattractant (DMEM+10% FBS) was added to the bottom of the wells. Using forceps, the inserts were transferred inside the wells and 0.5 mL of cell suspension was immediately added. The chambers were incubated for 22 hours in a humidified tissue culture incubator. After the 22 hours, the non-invading cells were removed by scrubbing the surface of the membrane. The cells were fixated with 4% formaldehyde solution for 2 minutes at room temperature. Followed by permeabilization of the membrane with 100% MeOH for 20 minutes at room temperature. The cells were stained with 0.5% crystal violet solution and several images of the wells were then taken and total number of cells counted for analysis.

Structure (SMILES): N=C(N)NCCCCNc1nc(Nc2ccc(Oc3ccccc3)cc2)nc(N2CCN(c3nc(N)nc(Nc4ccc(N5CCOCC5)cc4)n3)CC2)n1 [MC-1-F2]
- FOXC2 protein level ([1]; 24 hours, absence of MG132): decrease in FOXC2 protein level
- FOXC2 protein level in presence of MG132 ([1]; 24 hours, with 26S proteasome inhibitor MG132): prevented by incubating the cells with a 26S proteasome inhibitor, MG132
- nuclear localization of FOXC2 ([1]; 48 hours, cytosolic and nuclear fractions): decrease in nuclear localization of FOXC2
- AR expression [2]: no effect on AR expression
- CSC markers Nanog, C-myc and KLF4 [2]: significant decreases
- E-cadherin expression levels [2]: no recovery in the expression levels of E-cadherin
- EMT markers ZEB1, Vimentin, N-cadherin and Slug [2]: inhibit various EMT markers
- epithelial marker ZO-1 expression [2]: recovery of the epithelial marker ZO-1
- invasiveness (transwell invasion) [3]: remarkable inhibition in invasiveness
